Like-named read-outs stand apart in the source and are kept apart here.
Assays:
[1] = molecular target: T1, heparin binding site of basic fibroblast growth factor (bFGF) (Homo sapiens, UniProt P09038); experiment: Microplate thermal shift assay for ligands binding to bFGF; settings: read-out: binding affinity
T1 construct: host or cells: E. coli
Excerpt: The microplate thermal shift assay was used to assess ligands for binding to the heparin binding site of basic fibroblast growth factor (bFGF). The gene for bFGF was purchased from R&D Systems and was cloned and expressed in E. coli as previously described (Thompson, L. D. et al., Biochemistry 33:3831-3840 (1994); Pantoliano, M. W. et al., Biochemistry 33:10229-10248 (1994); Springer, B. A. et al., J. Biol. Chem. 269:26879-26884 (1994)).

[2] = molecular target: T2, acidic fibroblast growth factor (aFGF) (Homo sapiens, UniProt P05230); experiment: Microplate thermal shift assay for ligands binding to aFGF, turbidity as signal
T2 construct: host or cells: E. coli
T2 sequence (P05230 whole entry, species assumed): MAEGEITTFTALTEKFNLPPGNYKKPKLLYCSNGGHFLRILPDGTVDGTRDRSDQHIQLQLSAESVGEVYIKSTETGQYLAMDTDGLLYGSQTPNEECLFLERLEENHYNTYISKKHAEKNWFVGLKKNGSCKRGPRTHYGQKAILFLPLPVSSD
Excerpt: The second therapeutic receptor tested in the microplate thermal shift assay was acidic fibroblast growth factor (aFGF), a growth factor that plays a key role in angiogenesis (Folkman, J. et al., J. Biol. Chem. 267:10931-10934 (1992)). A synthetic gene for this protein was purchased from R&D Systems (Minneapolis, Minn.), and was cloned and expressed in E. coli using methods similar to those described for basic fibroblast growth factor (bFGF) (Thompson, L. D. et al., Biochemistry 33:3831-3840 (1994); Pantoliano, M. W. et al., Biochemistry 33:10229-10248 (1994); Springer, B. A. et al., J. Biol. Chem. 269:26879-26884 (1994)). Recombinant aFGF was then purified by heparin-sepharose affinity chromatography as described (Thompson, L. D. et al., Biochemistry 33:3831-3840 (1994)). aFGF is also known to bind heparin/heparan, which is a cofactor for mitogenic activity. […] A microplate thermal assay of these compounds was set up in a way similar to that described above for human α-thrombin. […] The affinity constants covered a fairly broad range of binding affinities, with pentosan PSO4 showing the highest affinity.

[3] = literature; cited from earlier work
[4] = tested on: D(II) domain of human FGF receptor 1; experiment: Microplate thermal shift assay for ligands binding to D(II) FGFR1, fluorescence emission as signal
Sequence of D(II) domain of human FGF receptor 1 (P11362 158-246 limits assumed): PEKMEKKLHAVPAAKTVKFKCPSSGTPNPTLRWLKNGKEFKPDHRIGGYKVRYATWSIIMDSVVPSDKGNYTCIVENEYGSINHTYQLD
Excerpt: The microplate thermal-shift assay was employed to test the binding of heparin 5000 and pentosan PSO4 to the known heparin binding site in the D(II) domain of fibroblast growth factor receptor 1 (FGFR1). D(II) FGFR1 is a 124 residue domain which is responsible for most of the free energy of binding for bFGF. D(II) FGFR1 was cloned and expressed in E. coli. Recombinant D(II) FGFR1 was renatured from inclusion bodies essentially as described (Wetmore, D. R. et al., Proc. Soc. Mtg., San Diego, Calif. (1994)), except that a hexa-histidine tag was included at the N-terminus to facilitate recovery by affinity chromatography on a Ni^2+ chelate column (Janknecht, R. et al., Natl. Acad. Sci. USA 88:8972-8976 (1991)). D(II) FGFR1 was further purified on a heparin-sepharose column (Kan, M. et al., Science 259:1918-1921 (1993); Pantoliano, M. W. et al., Biochemistry 33:10229-10248 (1994)). Purity was >95%, as judged by SDS-PAGE. The D(II) FGFR1 protein was concentrated to 12 mg/mL (˜1 mM) and stored at 4° C.
The D(II) FGFR1 protein was dissolved in an ANS solution to a concentration of […] (70 μM). The quantum yield for ANS bound to the denatured form of D(II) FGFR1 was lower than the quantum yield for ANS bound to human α-thrombin. Because ANS fluorescence is very environment dependent (see Lakowicz, I. R. Principles of Fluorescence Spectroscopy, Plenum Press, New York (1983)), the quantum yield observed for the denaturation of different proteins will vary. For D(II) FGFR1, the signal for the turbidity version of the assay, however, was nearly undetectable. Despite the decreased sensitivity for D(II) FGFR1, ANS rescued this system for the microplate assay. A similar-result was obtained for Factor Xa, except that the fluorescence quantum yield for ANS bound to denatured Factor Xa was almost as good as it was for human α-thrombin.

[5] = molecular target: T3, heparin binding site of human α-thrombin (Homo sapiens, UniProt P00734); experiment: Microplate thermal shift assay, ligands binding to the heparin binding site, turbidity as signal
T3 construct: A stock human α-thrombin solution; purchased Enzyme Research Labs
Excerpt: Assays for ligands that bind to the heparin binding site of human α-thrombin are more difficult to perform than assays for ligands that bind to the active site of human α-thrombin. At the heparin binding site, no substrate is hydrolyzed, so no spectrophotometric signal can be amplified for instrumental detection. Heparin activity is usually estimated in biological clotting time assays. […] Thus, heparin binding to human α-thrombin represents the kind of challenge encountered with the vast majority of non-enzyme receptor/ligand binding events, which are commonly observed for hormone/receptor interactions, repressor/DNA interactions, neurotransmitter/receptor interactions, etc. Several heparin-like sulfated oligosaccharides and sulfated naphthalene compounds were assayed by the microplate thermal shift assay. Using the thermal shift assay, it was possible to use a single compound per well to quickly rank the compounds in order of increasing binding affinity, with Kd's ranging over three orders of magnitude (see Table 4). Like the experiment in Example 1, the thermal shift assay results agreed closely with the results obtained through an alternative method, which required a series of laborious (15 to 20 single determinations) fluorescence quench assays over a wide range of concentrations of low MW heparin (Olson, S. T. et al., J. Biol. Chem. 266:6342-6352 (1991)).

bFGF = bFGF (Homo sapiens, UniProt P09038); settings: binding to bFGF by isothermal titrating calorimetry; read-out: Ki (298° K) Literature; cited from earlier work
Sequence of bFGF (P09038 134-288, species assumed): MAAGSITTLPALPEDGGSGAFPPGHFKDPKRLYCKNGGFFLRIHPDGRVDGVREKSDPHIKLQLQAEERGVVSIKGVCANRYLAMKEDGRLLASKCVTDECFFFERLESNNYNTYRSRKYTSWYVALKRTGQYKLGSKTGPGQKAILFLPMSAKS

[6] = many effects described as coagulation anomalies; cited from earlier work
D(II)-D(III) FGFR1 = settings: titrating calorimetry, read-out: Kd (298° K) Literature; cited from earlier work
Sequence of D(II)-D(III) FGFR1 (P11362 150-254 limits assumed): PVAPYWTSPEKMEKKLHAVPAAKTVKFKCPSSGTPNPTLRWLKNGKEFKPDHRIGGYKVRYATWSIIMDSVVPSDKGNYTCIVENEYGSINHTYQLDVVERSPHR

[7] = equation (1), estimated ΔHu 60.0 kcal/mole, ΔCpu 0.95 kcal/mole-°K, read-out: Kd at Tm

T1 sequence (P09038 134-288, species assumed): as the sequence (P09038 134-288, species assumed) above

pentosan polysulfate [Pentosan PSO4]
Kd [1]: 0.055 µM
Tm ([2]; aFGF/ligand, aFGF 0.25 mg/mL, ligand 47-200 μM, turbidity): 336.15 ° K
Kd [2, 7]: 0.208 µM
Kd ([2]; equation (3), ΔHL estimated −10.0 kcal/mole, read-out: Kd at 298° K Observed): 0.031 µM
anticoagulant properties [3]: anticoagulant properties
Tm ([4]; D(II) FGFR1 70 μM, 136 μM ANS, ligand 150-156 μM): 319.4 ° K
Kd [4, 7]: 19.1 µM
Kd ([4]; equation (3), ΔHL −12.1 (pentosan PSO4) and −7.48 kcal/mole (heparin 5000), read-out: Kd at 298° K Observed): 4.9 µM
Kd ([5]; calculated with equation (1), read-out: Kd at Tm): 2.43 µM
Kd ([5]; estimated with equation (3), ΔHL estimated −10.0 kcal/mole, read-out: Kd at 298° K Observed): 0.427 µM
affinity at Tm, fold higher than the affinity of heparin 5000 ([5]; thermal shift assay, at Tm): 7 fold
Tm ([5]; thrombin/ligand complex, 11 μM thrombin, ligand 40-102 μM, turbidity): 332.15 ° K
Ki (bFGF): 0.088 µM
outcome of clinical trials [6]: discounted due to toxic effects
Kd (D(II)-D(III) FGFR1): 10.9 µM

Source: patent US20020114734A1, “Microplate thermal shift assay apparatus for ligand development and multi-variable protein chemistry optimization” (priority 1996, published 2002)
